Earlier results as cited in patent US20240207289A1 (priority 2022, published 2024).

Target: Cannabinoid-2 (CB2R) receptor (Homo sapiens, UniProt P34972)
Sequence (P34972 whole entry): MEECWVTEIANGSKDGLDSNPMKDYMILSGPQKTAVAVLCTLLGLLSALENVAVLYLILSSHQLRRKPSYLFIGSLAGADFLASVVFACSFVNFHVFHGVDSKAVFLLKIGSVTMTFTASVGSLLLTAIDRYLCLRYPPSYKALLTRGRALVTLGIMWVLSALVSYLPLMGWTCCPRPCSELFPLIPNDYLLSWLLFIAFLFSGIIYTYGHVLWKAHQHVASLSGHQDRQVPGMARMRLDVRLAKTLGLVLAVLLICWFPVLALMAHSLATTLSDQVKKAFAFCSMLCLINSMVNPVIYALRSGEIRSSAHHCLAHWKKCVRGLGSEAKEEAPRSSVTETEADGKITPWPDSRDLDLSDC

Q: For `CCCCCc1cc(O)c2c(c1)OC(C)(C)[C@@H]1CCC(C)=C[C@@H]21` [THC, delta-9-tetrahydrocannabinol], which “activity at Cannabinoid-2 receptor” value is on record?
A: Its value is “weak partial agonist activity”.
